Reference: ChEMBL document CHEMBL1142791, “Design, synthesis, and evaluation of 2-phenoxy-indan-1-one derivatives as acetylcholinesterase inhibitors” (Bioorg Med Chem Lett, 2005)

How the values were obtained:
[1] = target: Butyrylcholinesterase (Rattus norvegicus, UniProt Q9JKC1); assay: In vitro inhibitory concentration against butyrylcholinesterase was determined using rat serum homogenate
[2] = target: T1, Acetylcholinesterase (Rattus norvegicus, UniProt P37136)
T1 sequence (P37136 whole entry): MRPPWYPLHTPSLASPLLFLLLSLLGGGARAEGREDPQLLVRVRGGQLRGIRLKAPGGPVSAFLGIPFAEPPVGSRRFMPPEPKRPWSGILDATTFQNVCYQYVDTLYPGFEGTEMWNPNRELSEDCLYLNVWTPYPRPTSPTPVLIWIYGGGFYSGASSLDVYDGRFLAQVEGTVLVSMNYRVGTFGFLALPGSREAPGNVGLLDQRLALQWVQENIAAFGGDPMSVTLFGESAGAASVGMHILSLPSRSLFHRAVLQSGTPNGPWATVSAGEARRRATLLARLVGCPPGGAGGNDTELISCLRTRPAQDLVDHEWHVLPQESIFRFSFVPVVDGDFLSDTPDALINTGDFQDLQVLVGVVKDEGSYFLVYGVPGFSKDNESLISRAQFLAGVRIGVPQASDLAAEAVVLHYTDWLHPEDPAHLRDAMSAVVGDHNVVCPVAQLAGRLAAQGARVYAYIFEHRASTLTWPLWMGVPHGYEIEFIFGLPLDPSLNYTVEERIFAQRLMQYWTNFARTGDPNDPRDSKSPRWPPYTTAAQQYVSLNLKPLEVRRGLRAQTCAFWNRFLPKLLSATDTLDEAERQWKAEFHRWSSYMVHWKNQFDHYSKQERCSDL
Description: In vitro inhibitory concentration against rat cortex acetylcholinesterase

Butyrylcholinesterase, sequence (Q9JKC1 whole entry): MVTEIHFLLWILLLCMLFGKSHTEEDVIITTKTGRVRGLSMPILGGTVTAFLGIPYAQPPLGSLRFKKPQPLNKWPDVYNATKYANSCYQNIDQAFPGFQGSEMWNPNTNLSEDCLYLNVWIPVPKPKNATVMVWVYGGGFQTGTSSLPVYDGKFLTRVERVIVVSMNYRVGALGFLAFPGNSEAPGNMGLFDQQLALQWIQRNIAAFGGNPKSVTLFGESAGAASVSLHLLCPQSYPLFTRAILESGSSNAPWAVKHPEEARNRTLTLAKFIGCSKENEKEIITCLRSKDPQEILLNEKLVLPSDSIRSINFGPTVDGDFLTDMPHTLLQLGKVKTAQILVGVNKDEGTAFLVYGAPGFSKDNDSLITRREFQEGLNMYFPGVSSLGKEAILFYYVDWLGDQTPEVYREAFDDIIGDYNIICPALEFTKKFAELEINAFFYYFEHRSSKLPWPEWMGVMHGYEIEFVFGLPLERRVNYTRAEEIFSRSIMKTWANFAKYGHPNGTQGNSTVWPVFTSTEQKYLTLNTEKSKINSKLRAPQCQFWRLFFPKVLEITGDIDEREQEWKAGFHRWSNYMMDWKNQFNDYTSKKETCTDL

SMILES	IC50 [1] [µM]	IC50 [2] [µM]
COc1cc2c(cc1OC)C(=O)C(Oc1cccc(CN3CCCC3)c1)C2 (stereo not drawn)	39.5	–
COc1cc2c(cc1OC)C(=O)C(Oc1ccc(CN3CCN(C)CC3)cc1)C2 (stereo not drawn)	347	1.42
COc1cc2c(cc1OC)C(=O)C(Oc1ccc(C(C)N3CCCC3)cc1)C2 (stereo not drawn)	130	0.14
COc1cc2c(cc1OC)C(=O)C(Oc1ccc(CN(C)C)cc1)C2 (stereo not drawn)	1980	0.21
COc1cc2c(cc1OC)C(=O)C(Oc1cccc(C(C)N(C)C)c1)C2 (stereo not drawn)	288	0.82
COc1cc2c(cc1OC)C(=O)C(Oc1ccc(C(C)N3CCOCC3)cc1)C2 (stereo not drawn)	346	3.14
COc1cc2c(cc1OC)C(=O)C(Oc1cccc(C(C)N3CCCCC3)c1)C2 (stereo not drawn)	158	3.58
COc1cc2c(cc1OC)C(=O)C(Oc1cccc(C(C)N3CCN(C)CC3)c1)C2 (stereo not drawn)	252	17.6
COc1cc2c(cc1OC)C(=O)C(Oc1ccc(C(C)N3CCCCC3)cc1)C2 (stereo not drawn)	176	0.13
COc1cc2c(cc1OC)C(=O)C(Oc1cccc(C(C)N3CCOCC3)c1)C2 (stereo not drawn)	247	–
CCN(CC)C(C)c1cccc(OC2Cc3cc(OC)c(OC)cc3C2=O)c1 (stereo not drawn)	199	1.36
CCN(CC)C(C)c1ccc(OC2Cc3cc(OC)c(OC)cc3C2=O)cc1 (stereo not drawn)	234	0.22
COc1cc2c(cc1OC)C(=O)C(Oc1ccc(C(C)N(C)C)cc1)C2 (stereo not drawn)	1370	–
CCN(CC)Cc1ccc(OC2Cc3cc(OC)c(OC)cc3C2=O)cc1 (stereo not drawn)	251	0.1
COc1cc2c(cc1OC)C(=O)C(Oc1ccc(CN3CCCCC3)cc1)C2 (stereo not drawn)	262	0.15
CCN(CC)Cc1cccc(OC2Cc3cc(OC)c(OC)cc3C2=O)c1 (stereo not drawn)	190	2.28
COc1cc2c(cc1OC)C(=O)C(Oc1ccc(CN3CCCC3)cc1)C2 (stereo not drawn)	84.3	0.05
COc1cc2c(cc1OC)C(=O)C(Oc1cccc(CN3CCOCC3)c1)C2 (stereo not drawn)	219	–
COc1cc2c(cc1OC)C(=O)C(Oc1cccc(CN3CCCCC3)c1)C2 (stereo not drawn)	55.5	3.18
COc1cc2c(cc1OC)C(=O)C(Oc1cccc(C(C)N3CCCC3)c1)C2 (stereo not drawn)	212	1.96
COc1cc2c(cc1OC)C(=O)C(Oc1cccc(CN3CCN(C)CC3)c1)C2 (stereo not drawn)	209	6.41
COc1cc2c(cc1OC)C(=O)C(Oc1ccc(CN3CCOCC3)cc1)C2 (stereo not drawn)	384	1.3
COc1cc2c(cc1OC)C(=O)C(Oc1cccc(CN(C)C)c1)C2 (stereo not drawn)	207	–
COc1cc2c(cc1OC)C(=O)C(Oc1ccc(C(C)N3CCN(C)CC3)cc1)C2 (stereo not drawn)	393	2.98
